Measurements published in patent EP1969933A1, “Di-halogen phenoxy phenylamidines and their use as fungicides” (Bayer CropScience AG, priority 2007, dated 2008).
Where two headings read alike, the source gives them in different places.

Experiments:
[1] = logP (acidic, pH 2.3, and neutral); assay type: physicochemical; settings: for logP: read-out: logP neutr.
[2] = test system: Uromyces appendiculatus; assay: Uromyces test (bean) / protective; assay type: in vivo; settings: 10ppm active ingredient, evaluated 10 days after inoculation, 0 % = control, 100 % = no infestation
From the text: (§1) Zur Herstellung einer zweckmäßigen Wirkstoffzubereitung vermischt man 1 Gewichtsteil Wirkstoff mit den angegebenen Mengen Lösungsmittel und Emulgator und verdünnt das Konzentrat mit Wasser auf die gewünschte Konzentration.
Zur Prüfung auf protektive Wirksamkeit werden junge Pflanzen mit der Wirkstoffzubereitung in der angegebenen Aufwandmenge besprüht. Nach Antrocknen des Spritzbelages werden die Pflanzen mit einer wäßrigen Sporensuspension des Bohnenrosterregers Uromyces appendiculatus inokuliert und verbleiben dann 1 Tag bei ca. 20°C und 100% relativer Luftfeuchtigkeit in einer Inkubations-kabine.
Die Pflanzen werden dann im Gewächshaus bei ca. 21°C und einer relativen Luftfeuchtigkeit von ca. 90% aufgestellt.
(§2) 10 Tage nach der Inokulation erfolgt die Auswertung. Dabei bedeutet 0% ein Wirkungsgrad, der demjenigen der Kontrolle entspricht, während ein Wirkungsgrad von 100% bedeutet, daß kein Befall beobachtet wird.

[3] = test system: Podosphaera leucotricha; assay: Podosphaera test (apple) / protective; assay type: in vivo; settings: 240 h, 100 ppm active ingredient, evaluated 10 days after inoculation, 0 % = control, 100 % = no infestation, read-out: Wirkungsgrad
From the text: as §1
(§3) Zur Prüfung auf protektive Wirksamkeit werden junge Pflanzen mit der Wirkstoffzubereitung in der angegebenen Aufwandmenge besprüht. Nach Antrocknen des Spritzbelages werden die Pflanzen mit einer wäßrigen Sporensuspension des Apfelmehltauerregers Podosphaera leucotricha inokuliert. Die Pflanzen werden dann im Gewächshaus bei ca. 23°C und einer relativen Luftfeuchtigkeit von ca. 70% aufgestellt.
as §2

[4] = test system: Leptosphaeria nodorum; assay: Leptosphaeria nodorum test (wheat) / protective; assay type: in vivo; settings: 500 ppm active ingredient, evaluated 12-14 days after inoculation, 0 % = control, 100 % = no infestation
From the text: as §1
Zur Prüfung auf protektive Wirksamkeit bespritzt man junge Weizenpflanzen mit der Wirkstoffzubereitung in der angegebenen Aufwandmenge. 1 Tag nach der Behandlung werden die Pflanzen mit einer wäßrigen Sporensuspension von Leptosphaeria nodorum inokuliert und verbleiben dann 48h bei 100% rel. Luftfeuchte und 20°C. Anschließend werden die Pflanzen in einem Gewächshaus bei 80 % rel. Luftfeuchtigkeit und einer Temperatur von 22°C aufgestellt.
12-14 Tage nach der Inokulation erfolgt die Auswertung. Dabei bedeutet 0 % ein Wirkungsgrad, der demjenigen der Kontrolle entspricht, während ein Wirkungsgrad von 100 % bedeutet, dass kein Befall beobachtet wird.

[5] = test system: Sphaerotheca fuliginea; assay: Sphaerotheca test (cucumber) / protective; assay type: in vivo; settings: Podosphaera fuliginea, 168 h, 100ppm active ingredient, evaluated 7 days after inoculation, 0 % = control, 100 % = no infestation, read-out: Wirkungsgrad
From the text: as §1
as §3, with “von Sphaerotheca fuliginea” for “des Apfelmehltauerregers Podosphaera leucotricha”, “dann” for “dann im Gewächshaus”, “70% im Gewächshaus” for “70%”
7 Tage nach der Inokulation erfolgt die Auswertung. Dabei bedeutet 0% ein Wirkungsgrad, der demjenigen der Kontrolle entspricht, während ein Wirkungsgrad von 100% bedeutet, daß kein Befall beobachtet wird.

[6] = test system: Puccinia recondita; assay: Puccinia test (wheat) / protective; assay type: in vivo; settings: 240 h, 1000 ppm active ingredient, protective spray, evaluated 10 days after inoculation, 0 % = control, 100 % = no infestation, read-out: Wirkungsgrad
From the text: as §1
Zur Prüfung auf protektive Wirksamkeit werden junge Pflanzen mit der Wirkstoffzubereitung in der angegebenen Aufwandmenge besprüht. Nach Antrocknen des Spritzbelages werden die Pflanzen mit einer Konidiensuspension von Puccinia recondita besprüht. Die Pflanzen verbleiben 48 Stunden bei 20°C und 100 % relativer Luftfeuchtigkeit in einer Inkubationskabine.
Die Pflanzen werden dann in einem Gewächshaus bei einer Temperatur von ca. 20°C und einer relativen Luftfeuchtigkeit von 80 % aufgestellt, um die Entwicklung von Rostpusteln zu begünstigen.
10 Tage nach der Inokulation erfolgt die Auswertung. Dabei bedeutet 0 % ein Wirkungsgrad, der demjenigen der Kontrolle entspricht, während ein Wirkungsgrad von 100 % bedeutet, daß kein Befall beobachtet wird.

[7] = test system: Erysiphe graminis f. sp. hordei; assay: Erysiphe test (barley) / protective; assay type: in vivo; settings: Blumeria graminis, 168 h, 500 ppm active ingredient, evaluated 7 days after inoculation, 0 % = control, 100 % = no infestation, read-out: Wirkungsgrad
From the text: as §1
Zur Prüfung auf protektive Wirksamkeit bespritzt man junge Getreidepflanzen mit der Wirkstoffzubereitung in der angegebenen Aufwandmenge. 1 Tag nach der Behandlung werden die Pflanzen mit Sporen von Erysiphe graminis f. sp. hordei inokuliert. Anschließend werden die Pflanzen in einem Gewächshaus bei 70 % relativer Luftfeuchtigkeit und einer Temperatur von 18°C aufgestellt.
7 Tage nach der Inokulation erfolgt die Auswertung. Dabei bedeutet 0 % ein Wirkungsgrad, der demjenigen der Kontrolle entspricht, während ein Wirkungsgrad von 100 % bedeutet, daß kein Befall beobachtet wird.

[8] = pH 2, pH 2,3, read-out: log P (pH 2,3)
[9] = pH 2.3, acidic, read-out: logP sauer

logP ([1]; neutral) | logD [1, 9] | Compound | pest or weed control at 1000 ppm [6] [%] | pest or weed control at 500 ppm [7] [%] | further results
– | – | Cc1cc(Oc2ccc(Cl)c(Cl)c2)c(C)cc1N [4-(3,4-Dichlorphenoxy)-2,5-dimethylanilin] | – | – | logD [1, 8]: 3.51
– | – | Cc1cc([N+](=O)[O-])c(C)cc1Oc1ccc(Cl)c(Cl)c1 [4-(3,4-Dichlorphenoxy)-2,5-dimethylnitrobenzol] | – | – | logD [1, 8]: 5.19
6.2 | 2.37 | CCN(C)C=Nc1cc(C)c(Oc2ccc(F)c(F)c2)cc1C [Nr. 2] | – | – | –
5.8 | 2.29 | CCN(C)C=Nc1cc(C)c(Oc2cc(F)cc(Br)c2)cc1C [Nr. 3] | ≥ 70 | ≥ 70 | Wirkungsgrad [2]: ≥ 70%; pest or weed control at 100 ppm [3]: ≥ 70%; Wirkungsgrad [4]: ≥ 70%; pest or weed control at 100 ppm [5]: ≥ 70%
6 | 2.5 | CCN(C)C=Nc1cc(C)c(Oc2cc(Br)cc(Br)c2)cc1C [Nr. 4] | ≥ 70 | ≥ 70 | pest or weed control at 100 ppm [3]: ≥ 70%; pest or weed control at 100 ppm [5]: ≥ 70%
6.4 | 2.62 | Cc1cc(Oc2cc(Br)cc(Br)c2)c(C)cc1N=CN(C)C(C)C [Nr. 5] | ≥ 70 | ≥ 70 | –
6.4 | 2.56 | CCN(C)C=Nc1cc(C)c(Oc2cc(Cl)cc(Br)c2)cc1C [Nr. 6] | ≥ 70 | ≥ 70 | pest or weed control at 100 ppm [3]: ≥ 70%; pest or weed control at 100 ppm [5]: ≥ 70%
6.8 | 2.7 | Cc1cc(Oc2cc(Cl)cc(Br)c2)c(C)cc1N=CN(C)C(C)C [Nr. 7] | ≥ 70 | ≥ 70 | Wirkungsgrad [2]: ≥ 70%; pest or weed control at 100 ppm [3]: ≥ 70%; pest or weed control at 100 ppm [5]: ≥ 70%
5.6 | 2.21 | CCN(C)C=Nc1cc(C)c(Oc2cc(F)cc(Cl)c2)cc1C [Nr. 8] | ≥ 70 | ≥ 70 | –
6.3 | 2.42 | Cc1cc(Oc2cc(F)cc(Cl)c2)c(C)cc1N=CN1CCCCC1 [Nr. 9] | ≥ 70 | ≥ 70 | pest or weed control at 100 ppm [3]: ≥ 70%; pest or weed control at 100 ppm [5]: ≥ 70%
5.6 | 2.26 | Cc1cc(Oc2cc(F)cc(Cl)c2)c(C)cc1N=CN1CCCC1 [Nr. 10] | – | – | –
6.1 | 2.39 | CCCN(C)C=Nc1cc(C)c(Oc2cc(F)cc(Cl)c2)cc1C [Nr. 11] | ≥ 70 | ≥ 70 | pest or weed control at 100 ppm [3]: ≥ 70%; pest or weed control at 100 ppm [5]: ≥ 70%
6.5 | 2.55 | Cc1cc(Oc2cc(F)cc(Br)c2)c(C)cc1N=CN1CCCCC1 [Nr. 12] | ≥ 70 | ≥ 70 | –
5.7 | 2.37 | Cc1cc(Oc2cc(F)cc(Br)c2)c(C)cc1N=CN1CCCC1 [Nr. 13] | ≥ 70 | ≥ 70 | –
7.4 | 2.37 | CCCN(C)C=Nc1cc(C)c(Oc2cc(F)cc(Br)c2)cc1C [Nr. 14] | ≥ 70 | ≥ 70 | –
6.1 | 2.23 | CCN(C)C=Nc1cc(C)c(Oc2ccc(Cl)c(Br)c2)cc1C [Nr. 15] | ≥ 70 | – | Wirkungsgrad [4]: ≥ 70%

logP ([1]; neutral) | logD [1, 9] | Compound | pest or weed control at 1000 ppm [6] [%] | pest or weed control at 500 ppm [7] [%] | further results
6.9 | 2.66 | Cc1cc(Oc2ccc(Cl)c(Br)c2)c(C)cc1N=CN1CCCCC1 [Nr. 16] | ≥ 70 | – | –
6.6 | 2.64 | CCCN(C)C=Nc1cc(C)c(Oc2ccc(Cl)c(Br)c2)cc1C [Nr. 17] | – | – | –
6.6 | 2.56 | Cc1cc(Oc2ccc(Cl)c(Br)c2)c(C)cc1N=CN1CCCC1 [Nr. 18] | – | – | –
– | 2.4 | CCN(C)C=Nc1cc(C)c(Oc2cc(F)cc(I)c2)cc1C [Nr. 19] | ≥ 70 | – | –
6.6 | 2.61 | CCCN(C)C=Nc1cc(C)c(Oc2cc(F)cc(I)c2)cc1C [Nr. 20] | – | – | –
6.8 | 2.6 | Cc1cc(Oc2cc(F)cc(I)c2)c(C)cc1N=CN1CCCCC1 [Nr. 21] | ≥ 70 | – | Wirkungsgrad [4]: ≥ 70%
6.6 | 2.46 | Cc1cc(Oc2cc(F)cc(I)c2)c(C)cc1N=CN1CCCC1 [Nr. 22] | – | – | –
5.7 | 2.29 | CCN(C)C=Nc1cc(C)c(Oc2ccc(F)c(Br)c2)cc1C [Nr. 23] | ≥ 70 | – | Wirkungsgrad [2]: ≥ 70%; pest or weed control at 100 ppm [5]: ≥ 70%
6.2 | 2.4 | Cc1cc(Oc2ccc(Cl)c(I)c2)c(C)cc1N=CN(C)C(C)C [Nr. 24] | ≥ 70 | – | Wirkungsgrad [2]: ≥ 70%; pest or weed control at 100 ppm [3]: ≥ 70%; Wirkungsgrad [4]: ≥ 70%; pest or weed control at 100 ppm [5]: ≥ 70%
– | 2.29 | CCN(C)C=Nc1cc(C)c(Oc2ccc(Cl)c(I)c2)cc1C [Nr. 25] | ≥ 70 | – | pest or weed control at 100 ppm [3]: ≥ 70%; Wirkungsgrad [4]: ≥ 70%
– | 2.52 | Cc1cc(Oc2ccc(Cl)c(I)c2)c(C)cc1N=CN1CCCCC1 [Nr. 26] | – | – | Wirkungsgrad [4]: ≥ 70%
6.1 | 2.67 | CCN(C)C=Nc1cc(C)c(Oc2ccc(Br)c(I)c2)cc1C [Nr. 27] | – | – | Wirkungsgrad [4]: ≥ 70%
– | – | CCCN(C)C=Nc1cc(C)c(Oc2cc(F)cc(Br)c2)cc1C [Nr. 28] | – | – | logP sauer ([1]; acidic): 2,91; logP neutr. ([1]; neutral): 6,9
5.8 | 2.59 | Cc1cc(Oc2cc(F)cc(Br)c2)c(C)cc1N=CN1CC(C)OC(C)C1 (stereo not shown) [Nr. 29] | – | – | –
– | – | CCN(C)C=Nc1cc(C)c(Oc2ccc(Cl)c(Cl)c2)cc1C [Nr. 30, N-Ethyl-N-methyl-N'-[4-(3,4-dichlorphenoxy)-2,5-dimethylphenyl]formamidin] | – | – | logD [1, 8]: 2.48
